Reference: patent US11447638B2, “Acetalanthraquinone derivatives useful for cellular staining” (BIOSTATUS LIMITED, priority 2016, dated 2022)

What was measured:
A549 cells = assay: Flow cytometry analysis of cell uptake before/after hydrolysis; type: cell-based, human; settings: 20 μM, 30 min; for % ile (25): low loader cell population
Method: Flow cytometry analysis was performed to evaluate the effect of pre-treatment with HCl to generate an active aldehyde on the cell uptake properties. A549 cells were incubated for 30 min with compounds of Formula (I) and its hydrolysed forms (20 μM) prior to analysis. The rate of uptake was tested in A549 cell culture media and in Aldefluor buffer, containing the MDR-blocker verapamil (Pearce and Bonnet 2007), to evaluate the effect in uptake with/without the Aldefluor assay system. Analysis was conducted in the viable subset of cells, corresponding to ˜95% of the total amount under investigation.
Aldefluor buffer contained verapamil vs. cell media. The cells were incubated with 20 μM of the respective AAQ/HAAQs (30 min) before analysis
Statistical analysis of A549 uptake before/after hydrolysis was also studied. Experiments were performed in cell media versus Aldefluor buffer. Data were processed using FlowJo software (Tree Star). DRAQ5 was used to set the dynamic range and as control dye and empty cells were used to determine auto-fluorescence.

[1] = system: fixed human osteosarcoma U-2 OS cells; assay: Labelling of fixed cells, wide-field fluorescence microscopy; type: cell-based; settings: 20 μM, 1 h exposure in PBS, FIG. 2
Method: Cells were seeded in a 24 well coverslip bottomed-plate, cultured overnight in McCoys media. 24 or 48 hours later the cells were washed gently with 3×2 mL PBS per well. The PBS was removed and 0.5 mL of 4% paraformaldehyde solution [a 4% paraformaldehyde solution in PBS was made fresh each time from a 16% stock solution (Thermo Fisher Scientific)] was added in each well and cells were incubated for 30 min. The paraformaldehyde was removed and cells were washed 3×2 mL PBS per well. 1 mL of PBS or HEPES was added to each well.
(§1) Before analysis, cells were incubated at 37° C. in the dark for the period designated. Samples were analysed directly without any further washing step. For live cell labelling cells were seeded, plated in a similar way, into a similar multi-well dish for optimal optical performance and could be used across all microscope platforms.
(§2) This basic protocol was the standard for testing the patterns of AAQ agents at 20 μM, compared to 20 μM of DRAQ5 as the benchmark reference (both in terms of cellular location and ability to detect the red fluorescence).
Low resolution wide-field fluorescence microscopy was used to evaluate cell labelling in fixed human osteosarcoma U-2 OS cells. The system was an Axiovert 100 microscope (Carl Zeiss, Welwyn Garden City, UK) ×10 0.3 NA air objective lens and an ORCA-ER CCD camera (Hamamatsu, Reading, UK). Illumination was controlled by a shutter in front of the transmission lamp. Image capture was controlled using Metamorph software. This evaluates the ability of the compounds to label cellular compartments without active uptake or efflux prohibiting delivery into the given cell. Image collection was performed after 1 h of exposure to probes in PBS. The calibration bar represents 50 μm.

A549 live cells = assay: Loading of A549 live cells, wide-field fluorescence microscopy; type: cell-based, human; settings: 20 μM, 30 min incubation, FIG. 3
Method: as §1, §2
Low resolution wide-field fluorescence microscopy was used to evaluate cell uptake and localisation of the probe compounds. The system was an Axiovert 100 microscope (Carl Zeiss, Welwyn Garden City, UK) ×10 0.3 NA air objective lens and an ORCA-ER CCD camera (Hamamatsu, Reading, UK). Illumination was controlled by a shutter in front of the transmission lamp. Image capture was controlled using Metamorph software. Human non-small cell lung cancer A549 cell line was used as the cell model to determine whether variation of the probe loading and localisation occurred in cell population sustaining a “side population” (SP) (Smith P J, Wiltshire M, Chappell S C, Cosentino L, Burns P A, Pors K, Errington R J. Kinetic analysis of intracellular Hoechst 33342—DNA interactions by flow cytometry: misinterpretation of side population status? Cytometry A 2013; 83:161-9) with a known capacity to efflux xenobiotic molecules, including the DNA dye Hoechst 33342.
Cells were incubated for 30 min with each compound and then images were collected at a 30 ms exposure time using low resolution wide-field fluorescence microscopy. Using an Axiovert 100 microscope (Carl Zeiss, Welwyn Garden City, UK) ×10 0.3 NA air objective lens and an ORCA-ER CCD camera (Hamamatsu, Reading, UK). Illumination was controlled by a shutter in front of the transmission lamp. Image capture was controlled using Metamorph software. The calibration bar represents 50 μm.

U-2 OS cells = assay: Confocal laser scanning microscopy (CLSM) localisation analysis; type: cell-based, human; settings: 30 min incubation, Ex 637 nm, Em >665 nm; for subcellular localisation by CLSM: FIG. 4 and 5
Method: Confocal laser scanning microscopy (CLSM) was used to analyse the localisation of compounds BST-100, BST-101 and BST-106 with the U-2 OS cells, as it permitted the acquisition of volume limited optical sections through the cell and media. Excitation (637 nm) and emission (>665 nm) values for the probe analysis were the optimal conditions. The data sets obtained were processed and assembled into a single maximum projection image.
The patterns were analysed after 30 min incubation at different z depths and eliminating the solution background. The nucleus/cytoplasm ratio was calculated to quantify the localisation of the probe per cell.
A Radiance CLSM (BioRad Microscience) was used attached to an inverted Nikon microscope. Image acquisition was performed using excitation (637 nm) and emission (>665 nm) wavelengths. The histogram plot reports the nucleus/cytoplasm index to determine DNA binding in live cells. The calibration bar represents 10 μm.
The compounds BST-108, BST-109 were analysed in the same way.

[2] = Absorption and fluorescence spectra of compounds in PBS or HEPES; type: physicochemical; settings: for peak excitation wavelength: excitation wavelength used for fluorescence spectra of FIG. 1A/1B; for fluorescence emission, 540 nm (Ex in PBS): excited at 540 nm; for fluorescence emission, 540 nm (Ex in PBS) / fluorescence emission, λ1 nm (Ex in HEPES) / fluorescence emission, λ1 nm (Ex in PBS): 20 μM; for fluorescence emission, λ1 nm (Ex in HEPES) / fluorescence emission, λ1 nm (Ex in PBS): excited at absorption peak 1 (λ1)
Method: The compounds were exited at 540 nm and at the wavelength of their absorption peak 1 (λ1 nm). The far-red fluorescent DNA dye DRAQ5 was used as reference.
Compounds were dissolved in DMSO (Sigma) to 20 mM stock concentration. DRAQ5 (Biostatus Ltd) was used as a control anthraquinone agent dissolved in deionised water. Working solutions were prepared in PBS (phosphate buffered saline; Sigma) or HEPES (4-(2-hydroxyethyl)-1-piperazineethanesulfonic acid; Sigma) at 20 or 40 μM. Probe solutions (20 μM), respectively in PBS or HEPES, were pipetted into a 1 mL quartz cuvette (Thermo Fisher Scientific). After obtaining baseline spectra in relevant buffer to zero the instrument, absorbance measurements were obtained using a Beckmann Coulter DU 800 UV/Visible spectrophotometer. The excitation wavelengths were scanned from 280 to 800 nm. Fluorescent spectral scans were performed using a Perkin Elmer LS-50B Luminescence spectrophotometer. To obtain emission scans, the excitation wavelength was set accordingly to the maximum values for each agent or another designated excitation wavelength that matches typical laser lines; and the emission wavelength were scanned from 400 nm to 900 nm in 1 nm increments. A Xenon flash lamp was used as the light source, with the lamp energy set to high. For each data point ten measurements were acquired with the photomultiplier tube sensitivity set at 125.
Compounds were excited at a wavelength corresponding to the first absorbance peak 1 (FIG. 1A and FIG. 1B show absorption (line) and fluorescence (dots) spectra of compounds; both are normalised to peak value.

MCF7 = assay: MTT cellular viability (growth inhibition) assay, MCF7; type: cell-based; settings: Homo sapiens, 0.25-100 μM, 72 h, Table 3
Method: (§3) The viability of A549 or MCF7 in response to compounds was determined using the MTT (3-(4,5-dimethylthiazolyl-2-)-2, 5-diphenyltetrazolium bromide) assay according to the protocol set out in Mosmann T., Rapid colorimetric assay for cellular growth and survival: application to proliferation and cytotoxicity assays. Journal of immunological methods 1983; 65:55-63.
(§4) Initially, cells were seeded into a rounded-bottom 96 well plate (Corning) at six different cell seeding densities (0.5×104, 1×104, 2×104, 3×104, 4×104, and 5×104) per mL of R10 media (cells/mL) in order to optimise the assay and establish the most suitable seeding assay. Concentration of 1×10^4 cells/mL was determined to be the optimum seeding density for both cell lines for 96 h total incubation. A control lane contained supplemented R10 only. The 96 well plates were incubated overnight at 37° C., 5% CO2 and 100% humidity to allow cell adhesion. Cells were then treated respectively with novel AAQs (0.25-100 μM) or growth inhibition (IC50) of compounds of the invention was studied against MCF7 and A549 cancer cell lines. Compounds were tested with a concentration range between 0.25 and 100 μM for 72 h and doxorubicin, as positive cytotoxic control, was tested in parallel at the same doses.

A549 = assay: MTT cellular viability (growth inhibition) assay, A549; type: cell-based; settings: Homo sapiens, 0.25-100 μM, 72 h, Table 3
Method: as §3, §4

2780/cp70 = assay: Further tests against cell lines, 2780/cp70; type: cell-based; settings: ratio to A2780
MCP1 = assay: Further tests against cell lines, MCP1; type: cell-based; settings: ratio to A2780
Method: (§5) Further tests were carried out against A2780, 2780AD and MCP1 cell lines.

2780AD = assay: Further tests against cell lines, 2780AD; type: cell-based; settings: ratio to A2780
Method: as §5

[3] = solution: Aldefluor buffer with verapamil

Row | SMILES | Median (fluorescence, uptake) (A549 cells; [3]) | % ile (25) (A549 cells; [3]) | Median (fluorescence, uptake) (A549 cells; solution: media) | % ile (25) (A549 cells; solution: media) | fluorescence brightness / background in fixed cells [1] | staining pattern in fixed cells [1] | fluorescence brightness / background in live cells (A549 live cells) | staining pattern in live cells (A549 live cells) | subcellular localisation by CLSM (U-2 OS cells) | peak excitation wavelength [2] [nm] | fluorescence emission, 540 nm (Ex in PBS) [2] [nm] | fluorescence emission, λ1 nm (Ex in HEPES) [2] [nm] | fluorescence emission, λ1 nm (Ex in PBS) [2] [nm] | IC50 (MCF7) [µM] | IC50 (A549) [µM] | specific feature of localisation by CLSM (U-2 OS cells) | RF (2780/cp70) | RF (MCP1) (MCP1) | RF (2780AD)
1 | COC(CCCCNc1ccc(NCCN(C)C)c2c1C(=O)c1ccccc1C2=O)OC [BST-106, 1-(5,5-Dimethoxypentylamino)-4-(2-(dimethylamino)ethylamino) anthracene-9,10-dione] | 96.13 | 81.66 | 101.48 | 84.64 | very bright background | diffuse cytoplasmic staining, with some perinuclear and nucleoli labelling | high background | heterogeneous cytoplasmic staining | additional nuclear signal | 584 | 670 | 664 | 660 | 11.3 | 11.7 |  |  |  | 
2 | COC(CNC(=O)CCNc1ccc(NCCN(C)C)c2c1C(=O)c1c(O)ccc(O)c1C2=O)OC [BST-108, N-(2,2-Dimethoxyethyl)-3-(4-(2-(dimethylamino)ethylamino)-5,8-dihydroxy-9,10-dioxo-9,10-dihydroanthracen-1-ylamino)propanamide] | 67.08 | 57.65 | 75.48 | 65.32 |  | heterogeneity in cytoplasmic staining and positive spots in the nuclei | very bright cellular fluorescence |  | strong nuclear uptake and perinuclear staining, with possible ER accumulation | 610 | 692 | 684 | 685 | 1.44 | 1.7 |  |  |  | 
3 | COC(CC(=O)NCCNc1ccc(NCCN(C)C)c2c1C(=O)c1c(O)ccc(O)c1C2=O)OC [BST-111, N-(2-(4-(2-(Dimethylamino)ethylamino)-5,8-dihydroxy-9,10-dioxo-9,10-dihydroanthracen-1-ylamino)ethyl)-3,3-dimethoxypropanamide] | 74.94 | 64.64 | 72.42 | 62.72 | very high background fluorescence | cytoplasmic staining and heterogeneity on labelling of mitotic figures |  | greater contrast and diffuse cellular staining | strong nuclear uptake and perinuclear staining, with possible ER accumulation | 610 | 684 | 684 | 684 | 1.8 | 38.2 | mainly loaded in the nuclear compartment |  |  | 
4 | COC(CNCCCCCCNc1ccc(NCCCCCCNCC(OC)OC)c2c1C(=O)c1c(O)ccc(O)c1C2=O)OC [BST-300] |  |  |  |  |  |  |  |  |  |  |  |  |  |  |  |  | 0.17 | 0.37 | 1.07
5 | COC(CNCCCCCCNc1ccc(NCCN(C)C)c2c1C(=O)c1c(O)ccc(O)c1C2=O)OC [BST-301, 1-((6-((2,2-dimethoxyethyl)amino)hexyl)amino)-4-((2-(dimethylamino)ethyl)amino)-5,8-dihydroxyanthracene-9,10-dione] |  |  |  |  |  |  |  |  |  |  |  |  |  |  |  |  | 0.10 | 0.39 | 2.8
